Results as given in US6599900B2, “1-oxa-3,9-diaza-spiro[5,5]undecan-2-ones” (Syntex (U.S.A.) LLC, priority 2001, dated 2003).
Where a name gives a salt, the structure may show the parent alone.

Molecular target: T1, human NK1 receptor (Homo sapiens, UniProt P25103)
T1 construct: expressed in transfected cells; host or cells: CHO cells infected with the Semliki virus expression system; membrane suspension used
Assay: [3H]substance P binding at human NK1 receptors in CHO cells
Conditions: affinity to the NK-1 receptor; [3H]substance P 0.6 nM displacement, CHO cell membranes, 60 min at room temperature
Procedure: The affinity of test compounds for the NK1 receptor was evaluated at human NK1 receptors in CHO cells infected with the human NK1 receptor (using the Semliki virus expression system) and radiolabelled with [^3H]substance P (final concentration 0.6 nM). Binding assays were performed in HEPES buffer (50 mM, pH 7.4) containing BSA (0.04%) leupeptin (8 μg/ml), MnCl2 (3 mM) and phosphoramidon (2 μM). Binding assays consisted of 250 μl of membrane suspension (1.25×10^5 cells/assay tube), […] of buffer of displacing agent and 125 μl of [^3H]substance P. Displacement curves were determined with at least seven concentrations of the compound. The assay tubes were incubated for 60 min at room temperature after which time the tube contents were rapidly filtered under vacuum through GF/C filters presoaked for 60 min with PEI (0.3%) with 2×2 ml washes of HEPES buffer (50 mM, pH 7.4). The radioactivity retained on the filters was measured by scintillation counting. All assays were performed in triplicate in at least 2 separate experiments.

T1 sequence (P25103 whole entry): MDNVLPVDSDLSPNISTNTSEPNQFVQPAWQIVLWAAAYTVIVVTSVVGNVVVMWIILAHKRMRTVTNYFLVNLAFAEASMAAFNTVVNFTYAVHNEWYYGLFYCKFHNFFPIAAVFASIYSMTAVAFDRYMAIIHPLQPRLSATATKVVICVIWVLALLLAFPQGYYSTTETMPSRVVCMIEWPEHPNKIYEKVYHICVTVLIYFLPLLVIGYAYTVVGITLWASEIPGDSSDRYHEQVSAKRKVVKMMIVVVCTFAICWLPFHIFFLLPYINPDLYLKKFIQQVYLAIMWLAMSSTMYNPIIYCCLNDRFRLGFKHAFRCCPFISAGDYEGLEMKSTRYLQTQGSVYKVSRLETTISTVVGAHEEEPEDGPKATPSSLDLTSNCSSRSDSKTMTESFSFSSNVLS

Row | Compound | Ki [nM]
1 | O=C1OC2(CCN(C(=O)c3cc(C(F)(F)F)cc(C(F)(F)F)c3)CC2)C(c2ccccc2)CN1CCCN1CCC(O)C1 (racemic) [Example 26, (5RS)-9-(3,5-bis-trifluoromethyl-benzoyl)-3-[3-(3-hydroxy-pyrrolidin-1-yl)-propyl]-5-phenyl-1-oxa-3,9-diaza-spiro[5.5]undecan-2-one] | 4.07
2 | O=C1OC2(CCN(C(=O)c3cc(C(F)(F)F)cc(C(F)(F)F)c3)CC2)C(c2ccccc2)CN1Cc1cccnc1 (racemic) [Example 16, (5RS)-9-(3,5-bis-trifluoromethyl-benzoyl)-5-phenyl-3-pyridin-3-ylmethyl-1-oxa-3,9-diaza-spiro[5.5]undecan-2-one] | 6.17
3 | O=C1OC2(CCN(C(=O)c3cc(C(F)(F)F)cc(C(F)(F)F)c3)CC2)C(c2ccccc2)CN1CCCO (racemic) [Example 21, (5RS)-9-(3,5-bis-trifluoromethyl-benzoyl)-3-(3-hydroxy-propyl)-5-phenyl-1-oxa-3,9-diaza-spiro[5.5]undecan-2-one] | 6.76
4 | CN1CCC(N2CC(c3ccccc3)C3(CCN(C(=O)c4cc(C(F)(F)F)cc(C(F)(F)F)c4)CC3)OC2=O)CC1 (racemic) [Example 12, (5RS)-9-(3,5-bis-trifluoromethyl-benzoyl)-3-(1-methyl-piperidin-4-yl)-5-phenyl-1-oxa-3,9-diaza-spiro[5.5]undecan-2-one] | 3.89
5 | O=C(c1cc(C(F)(F)F)cc(C(F)(F)F)c1)N1CCC2(CC1)OC(=O)N(C1CCOCC1)CC2c1ccccc1 (racemic) [Example 13, (5RS)-9-(3,5-bis-trifluoromethyl-benzoyl)-5-phenyl-3-(tetrahydro-pyran-4-yl)-1-oxa-3,9-diaza-spiro[5.5]undecan-2-one] | 19.1
6 | O=C1OC2(CCN(C(=O)c3cc(C(F)(F)F)cc(C(F)(F)F)c3)CC2)C(c2ccccc2)CN1CCO (racemic) [Example 22, (5RS)-9-(3,5-bis-trifluoromethyl-benzoyl)-3-(2-hydroxy-ethyl)-5-phenyl-1-oxa-3,9-diaza-spiro[5.5]undecan-2-one] | 15.8
7 | CN(C)CCN1CC(c2ccccc2)C2(CCN(C(=O)c3cc(C(F)(F)F)cc(C(F)(F)F)c3)CC2)OC1=O (racemic) [Example 28, (5RS)-9-(3,5-bis-trifluoromethyl-benzoyl)-3-(2-dimethylamino-ethyl)-5-phenyl-1-oxa-3,9-diaza-spiro[5.5]undecan-2-one hydrochloride] | 7.41
8 | CN1CC(c2ccccc2)C2(CCN(C(=O)c3cc(C(F)(F)F)cc(C(F)(F)F)c3)CC2)OC1=O (racemic) [Example 18, (5RS)-9-(3,5-bis-trifluoromethyl-benzoyl)-3-methyl-5-phenyl-1-oxa-3,9-diaza-spiro[5.5]undecan-2-one] | 15.5
9 | O=C1OC2(CCN(C(=O)c3cc(C(F)(F)F)cc(C(F)(F)F)c3)CC2)C(c2ccccc2)CN1CCCN1CCCC1 (racemic) [Example 23, (5RS)-9-(3,5-bis-trifluoromethyl-benzoyl)-5-phenyl-3-(3-pyrrolidin-1-yl-propyl)-1-oxa-3,9-diaza-spiro[5.5]undecan-2-one] | 3.39
10 | CN1CC(c2ccc(F)c(F)c2)C2(CCN(C(=O)c3cc(C(F)(F)F)cc(C(F)(F)F)c3)CC2)OC1=O (racemic) [Example 20, (5RS)-9-(3,5-bis-trifluoromethyl-benzoyl)-5-(3,4-difluoro-phenyl)-3-methyl-1-oxa-3,9-diaza-spiro[5.5]undecan-2-one] | 30.9
11 | O=C1OC2(CCN(C(=O)c3cc(C(F)(F)F)cc(C(F)(F)F)c3)CC2)C(c2ccccc2)CN1CCCN1CCOCC1 (racemic) [Example 24, (5RS)-9-(3,5-bis-trifluoromethyl-benzoyl)-3-(3-morpholin-4-yl-propyl)-5-phenyl-1-oxa-3,9-diaza-spiro[5.5]undecan-2-one] | 3.47
12 | COc1nc(OC)nc(N2CC(c3ccccc3)C3(CCN(C(=O)c4cc(C(F)(F)F)cc(C(F)(F)F)c4)CC3)OC2=O)n1 (stereo not drawn) [Example 17, (5RS)-9-(3,5-bis-trifluoromethyl-benzoyl)-3-(4,6-dimethoxy-[1,3,5]triazin-2-yl)-5-phenyl-oxa-1-3,9-diaza-spiro[5.5]undecan-2-one] | 13.2
13 | COCCN1CC(c2ccc(F)c(F)c2)C2(CCN(C(=O)c3cc(C(F)(F)F)cc(C(F)(F)F)c3)CC2)OC1=O (racemic) [Example 19, (5RS)-9-(3,5-bis-trifluoromethyl-benzoyl)-5-(3,4-difluoro-phenyl)-3-(2-methoxy-ethyl)-1-oxa-3,9-diaza-spiro[5.5]undecan-2-one] | 19.1
14 | O=C1OC2(CCN(C(=O)c3cc(C(F)(F)F)cc(C(F)(F)F)c3)CC2)C(c2ccccc2)CN1CCN1CCOCC1 (stereo not drawn) [Example 27, (5RS)-9-(3,5-2is-trifluoromethyl-benzoyl)-3-(2-morpholin-4-yl-ethyl)-5-phenyl-1-oxa-3,9-diaza-spiro[5.5]undecan-2-one hydrochloride] | 6.31
15 | CN(C)C(=O)CN1CC(c2ccccc2)C2(CCN(C(=O)c3cc(C(F)(F)F)cc(C(F)(F)F)c3)CC2)OC1=O (racemic) [Example 14, (5RS)-2-[9-(3,5-bis-trifluoromethyl-benzoyl)-2-oxo-5-phenyl-1-oxa-3,9-diaza-spiro[5.5]undec-3-yl]-N,N-dimethyl-acetamide] | 6.61
16 | O=C1OC2(CCN(C(=O)c3cc(C(F)(F)F)cc(C(F)(F)F)c3)CC2)C(c2ccc(F)c(F)c2)CN1CC(F)F (racemic) [Example 15, (5RS)-9-(3,5-bis-trifluoromethyl-benzoyl)-3-(2,2-difluoro-ethyl)-5-(3,4-difluoro-phenyl)-1-oxa-3,9-diaza-spiro[5.5]undecan-2-one] | 11.5
17 | CN(C)CCCN1CC(c2ccccc2)C2(CCN(C(=O)c3cc(C(F)(F)F)cc(C(F)(F)F)c3)CC2)OC1=O (stereo not drawn) [Example 25, (5RS)-9-(3,5-bis-trifluoromethyl-benzoyl)-3-(3-dimethylamino-4-yl-propyl)-5-phenyl-1-oxa-3,9-diaza-spiro[5.5]undecan-2-one] | 3.47

Now from value to molecule:

Row | Ki [nM] | Compound
18 | 5.13 | O=C1NCC(c2cccc(Cl)c2)C2(CCN(C(=O)c3cc(C(F)(F)F)cc(C(F)(F)F)c3)CC2)O1 (racemic) [Example 1, (5RS)-9-(3,5-bis-trifluoromethyl-benzoyl)-5-(3-chloro-phenyl)-1-oxa-3,9-diaza-spiro[5.5]undecan-2-one]
19 | 14.8 | COc1cccc(C2CNC(=O)OC23CCN(C(=O)c2cc(C(F)(F)F)cc(C(F)(F)F)c2)CC3)c1 (racemic) [Example 10, (5RS)-9-(3,5-bis-trifluoromethyl-benzoyl)-5-(3-methoxy-phenyl)-1-oxa-3,9-diaza-spiro[5.5]undecan-2-one]
20 | 1.7 | O=C1NCC(c2ccc(F)c(F)c2)C2(CCN(C(=O)c3cc(C(F)(F)F)cc(C(F)(F)F)c3)CC2)O1 (racemic) [Example 2, (5RS)-9-(3,5-bis-trifluoromethyl-benzoyl)-5-(3,4-difluoro-phenyl)-1-oxa-3,9-diaza-spiro[5.5]undecan-2-one]
21 | 8.51 | O=C1NCC(c2cccc(F)c2F)C2(CCN(C(=O)c3cc(C(F)(F)F)cc(C(F)(F)F)c3)CC2)O1 (racemic) [Example 5, (5RS)-9-(3,5-bis-trifluoromethyl-benzoyl)-5-(2,3-difluoro-phenyl)-1-oxa-3,9-diaza-spiro[5.5]undecan-2-one]
22 | 9.77 | O=C1NCC(c2cc(F)ccc2F)C2(CCN(C(=O)c3cc(C(F)(F)F)cc(C(F)(F)F)c3)CC2)O1 (racemic) [Example 6, (5RS)-9-(3,5-bis-trifluoromethyl-benzoyl)-5-(2,5-difluoro-phenyl)-1-oxa-3,9-diaza-spiro[5.5]undecan-2-one]
23 | 5.13 | O=C1NCC(c2ccccc2)C2(CCN(C(=O)c3cc(C(F)(F)F)cc(C(F)(F)F)c3)CC2)O1 (racemic) [Example 4, (5RS)-9-(3,5-bis-trifluoromethyl-benzoyl)-5-phenyl-1-oxa-3,9-diaza-spiro[5.5]undecan-2-one]
24 | 11 | O=C1NCC(c2ccc(Cl)cc2)C2(CCN(C(=O)c3cc(C(F)(F)F)cc(C(F)(F)F)c3)CC2)O1 (racemic) [Example 8, (5RS)-9-(3,5-bis-trifluoromethyl-benzoyl)-5-(4-chloro-phenyl)-1-oxa-3,9-diaza-spiro[5.5]undecan-2-one]
25 | 10.7 | Cc1ccccc1C1CNC(=O)OC12CCN(C(=O)c1cc(C(F)(F)F)cc(C(F)(F)F)c1)CC2 (racemic) [Example 7, (5RS)-9-(3,5-bis-trifluoromethyl-benzoyl)-5-o-tolyl-1-oxa-3,9-diaza-spiro[5.5]undecan-2-one]
26 | 12.6 | Cc1ccc(C2CNC(=O)OC23CCN(C(=O)c2cc(C(F)(F)F)cc(C(F)(F)F)c2)CC3)cc1C (racemic) [Example 9, (5RS)-9-(3,5-bis-trifluoromethyl-benzoyl)-5-(3,4-dimethyl-phenyl)-1-oxa-3,9-diaza-spiro[5.5]undecan-2-one]
27 | 2.63 | O=C1NCC(c2ccc(Cl)c(Cl)c2)C2(CCN(C(=O)c3cc(C(F)(F)F)cc(C(F)(F)F)c3)CC2)O1 (racemic) [Example 3, (5RS)-9-(3,5-bis-trifluoromethyl-benzoyl)-5-(3,4-dichloro-phenyl)-1-oxa-3,9-diaza-spiro[5.5]undecan-2-one]
28 | 23.4 | O=C1NCC(c2ccccc2Cl)C2(CCN(C(=O)c3cc(C(F)(F)F)cc(C(F)(F)F)c3)CC2)O1 (racemic) [Example 11, (5RS)-9-(3,5-bis-trifluoromethyl-benzoyl)-5-(2-chloro-phenyl)-1-oxa-3,9-diaza-spiro[5.5]undecan-2-one]
